# Reference: US6653333B2, “Remedies or preventives for digestive diseases containing diaminotrifluoromethylpyridine derivatives” (Ishihara Sangyo Kaisha, Ltd., priority 2000, dated 2003)
# Assays:
# [1] = system: TNBS induced rat Crohn's disease model; experiment: Trinitrobenzene Sulfonic Acid (TNBS) induced rat Crohn's disease model; type: in vivo; conditions: TNBS rats
# Description: The therapeutic effect of the compound 1 on TNBS induced rat Crohn's disease model was studied by the following method.
# (1) SD male rats (12 weeks old) were anesthetized with Nembutal and their abdomen was opened up, a TNBS solution (TNBS 160 mg/ml ethanol) was administered in 1 ml/kg in the colon located 10 cm below the ileocecum, and their abdomen was closed to prepare models, which were divided into a non-treated group and a group treated with the compound 1, each group consisting of 6 rats. No such a treatment was carried out for normal group rats. After preparation of the models, a drug formulation of the compound 1 of Test Example 1 diluted with distilled water was perorally administered to rats of the group treated with the compound 1 once a day for 7 days in a dosage of 10 mg/kg/day as calculated as anhydride of the compound 1. After completion of administration period, visual change, small intestine weight and mucosal myeloperoxidase activity in small intestine (mucosal MPO activity) were observed or measured. The visual change was evaluated by digitizing and compiling various changes. The ratio of the small intestine weight to the body weight was also calculated from the small intestine weight and the body weight.
# [2] = system: rat sodium dextran sulfate (DSS) induced ulcerative colitis model; experiment: rat sodium dextran sulfate (DSS) induced ulcerative colitis model; type: in vivo; conditions: DSS rats
# Description: As an ulcerative colitis model, trinitrobenzenesulfonic acid (TNB) is usually used, but as a drug effect evaluation system to accomplish the present invention, a rat sodium dextran sulfate (DSS) induced ulcerative colitis model was used. It has been well known that said model is considered as an experimental model similar to human ulcerative colitis from many viewpoints such as inhibision of weight gain, presence or absence of bloody stool, symptoms of e.g. anemia and formation of erosion at the large intestine, and no formation of lesion in the small intestine [FOLIA PHARMACOLOGICA JAPONICA vol. 105, p. 145-152(1995)]. A therapeutic effect of N-(2-ethylsulfonylamino-5-trifluoromethyl-3-pyridyl)cyclohexanecarboxamide sodium salt monohydrate (hereinafter referred to as compound 1) over the test system was examined.
# The compound 1 was used as a drug formulation. The formulation composition (content per one vial) was as follows.
# A 3% aqueous solution of sodium dextran sulfate (DSS: manufactured by Wako Pure Chemical Industries, Ltd.) was put in a drinking bottle, and rats [Crj: CD(SD), male, Charles River Japan, 7 weeks old when subjected to the test] were made to drink the solution freely for 11 days to cause colitis. After eleven days, rats which satisfied selection standards (among rats which discharged bloody stool continuously for at least two days including the selection day, ones having a weight loss at the selection day of less than 20 g as compared with the weight on the previous day and having a hemoglobin concentration of at least 12 g/dl) were selected, and divided into groups (ten rats/group) so that there would be no difference in the average weight among groups.
# With respect to a non-treated group and groups treated with the compound 1, the 3% aqueous solution was changed to a 1% DSS aqueous solution at the day of division, and the rats were made to drink the solution freely for 14 days. Further, to the rats in the groups treated with the compound 1, the compound 1 was perorally administered once a day for 14 days from the day of division by means of a peroral sonde (dosage: 10 ml/kg). To the rats in the non-treated group and a normal group, distilled water for injection (manufactured by Otsuka Pharmaceutical Co., Ltd.) alone was perorally administered similarly. Here, the normal group rats were made to drink distilled water for injection freely instead of the DSS aqueous solution from initiation of the test to the day of anatomy.
# A 10 mg/ml aqueous solution of the compound 1 was prepared by using distilled water for injection (manufactured by Otsuka Pharmaceutical Co., Ltd.) and administered to the rats in a desired dosage.
# Immediately after collection of blood, the large intestine (colon and rectum) was excised, and its length was measured by means of a ruler in a sufficiently relaxed state.
# Immediately after the measurement, a fixing liquid was injected into the intestine, and the intestine was temporarily fixed for at least 1 hour in such a state that the lumen was approximately uniformly expanded. Then, the intestinal canal was dissected along the mesenterium adhered portion, and the intestine was completely fixed in an expanded state in a 10% neutral buffering formalin aqueous solution for at least one week. The intestine was washed with running water for about 5 minutes, and further washed with purified water three times, and then immersed in a 3% aqueous acetic acid solution for about 5 minutes as a pretreatment. Then, the intestine was immersed in a 1% Alcian blue (manufactured by Nacalai Tesque) (dissolved in a 3% aqueous acetic acid solution) and dyed for about 20 minutes, and then washed with a 3% aqueous acetic acid solution from 4 to 5 times until elution of Alcian blue disappeared. […]
structure (smiles),measurement,setting,value
"CCS(=O)(=O)Nc1ncc(C(F)(F)F)cc1NC(=O)C1CCCCC1.O.[Na] [compound 1, N-(2-ethylsulfonylamino-5-trifluoromethyl-3-pyridyl)cyclohexanecarboxamide sodium salt monohydrate]",Inflammatory reaction and tissue impairment in the small intestine,[1]; 10 mg/kg/day perorally for 7 days,the inflammatory reaction and tissue impairment in the small intestine were decreased
same,Ratio of small intestine to body weight (Mean),"[1]; 10 mg/kg/day perorally once a day for 7 days, non-treated 0.0065, normal 0.0030",0.0042
same,Small intestine weight (Mean),"[1]; 10 mg/kg/day perorally once a day for 7 days, non-treated 2.18, normal 1.11",1.63
same,Visual score (Mean),"[1]; 10 mg/kg/day perorally once a day for 7 days, non-treated 7.8, normal 1.5",4.2
same,Mucosal MPO activity (Mean),"[1]; 10 mg/kg/day perorally once a day for 7 days, non-treated 8.93, normal 0.48",0.89
same,Erosion suppression rate (large intestine erosion area vs non-treated group),[2]; 1 mg/kg/day perorally once a day for 14 days,45%
same,Erosion suppression rate (large intestine erosion area vs non-treated group),[2]; 10 mg/kg/day perorally once a day for 14 days,56%
same,Erosion suppression rate (large intestine erosion area vs non-treated group),[2]; 100 mg/kg/day perorally once a day for 14 days,62%
same,Anemia as a result of melena due to the erosion,[2]; peroral 14 days,decreases anemia
same,Histopathological study: inflammation at the submucosa in the erosion formed region,[2]; peroral 14 days,remarkable decrease of inflammation at the submucosa
same,Histopathological study: mucosal tissue reconstruction,[2]; peroral 14 days,normal tissue reconstruction by regeneration of the mucosa took place
same,Length of large intestine: intestine wall hyperplasia,[2]; peroral 14 days,decreases intestine wall hyperplasia
